# Experimental data: patent US8173428B2, “LNA oligonucleotides and the treatment of cancer” (Santaris Pharma A/S, priority 2004, dated 2012)
# Oligonucleotides are written 5' to 3', each unit as a sugar letter and its base; * is a phosphorothioate linkage, no mark a phosphodiester; rarer units and linkages stand in square brackets, end groups in braces. Plain capitals give the bases only. l = locked nucleic acid (LNA); [5mC] = 5-methylcytosine; d = 2'-deoxy (DNA)
# Tests used:
# Bcl-2 mRNA = Bcl-2 mRNA expression by real-time PCR in 15PC3 cells; type: cell-based, human
# Method: (§1) To determine the relative Survivin mRNA level in oligonucleotide treated and untreated cells, the generated cDNA was used in quantitative PCR analysis using an iCycler from BioRad. The cDNA was diluted 5-fold and 8 μl was mixed with 52 μl Taqman probe master mix containing 30 μl Platinum Quantitative PCR SuperMix UDG 2×PCR master mix (Invitrogen), 3 μl 20× Taqman probe and primer mix (forward primer: 5′[…] (SEQ ID NO:29), final 0.9 μM. Reverse primer: 5′[…] (SEQ ID NO:30), final 0.6 μM and taqman probe: FAM-[…]-TAMRA (SEQ ID NO:31), final 0.1 μM) and 19 μl H2O. The 60 μl were dispersed in two wells (96 well plates) with 25 μl in each well. For human Bcl-2 the PCR primers were:
# forward primer: 5′ […] 3′ (final concentration in the assay; 0.6 μM) (SEQ ID NO: 32) reverse primer: 5′ […] 3′ (final concentration in the assay; 0.6 μM) (SEQ ID NO: 33) and the PCR probe was: 5′ FAM-[…]-TAMRA 3′ (final concentration in the assay; 0.1 μM) (SEQ ID NO: 34). […]
# The primers and probe were obtained from […] (France). To normalize any variance in sample preparation, the endogenous GAPDH mRNA was quantified using a pre-developed Taqman assay reagent from Applied Biosystems (4310884E) according to manufacturer's Instructions. […] Relative quantities of Survivin mRNA were determined from the calculated threshold cycle using the iCycler IQ Real Time Detection System software.
# rats = assay: i.v. acute toxicity study in rats; type: in vivo
# Description: For SEQ ID NO. 2 the following was found among others in preclinical toxicity studies: […]
# 15PC3 cells = assay: Caspase 3/7 activity (apoptosis) in transfected 15PC3 cells; type: cell-based, human
# Method: Culturing of cells: 15PC3 was cultured in DMEM (Sigma) containing 10% fetal bovine serum, Glutamax I and gentamicin at 37° C., 95% humidity and 5% CO2. The cervical carcinoma cell line HeLa were cultured in MEM (Sigma) containing 10% fetal bovine serum, Glutamax I and gentamicin at 37° C., 95% humidity and 5% CO2. When reaching 60-70% confluency, the cells were transfected using Lipofectamine 2000 (5 μg/ml).
# 15PC3 cells were seeded to a density of 10000 cells per well in white 96-well plates (Nunc 136101) in DMEM the day prior to transfection. The next day cells were washed once in prewarmed OptiMEM followed by addition of 72 μl OptiMEM containing 5 μg/ml Lipofectamine-2000 (In vitrogen). Cells were incubated for 7 min before adding 18 μl oligonucleotides diluted in OptiMEM. The final oligonucleotide concentration ranged from 0.2 nM to 100 nM. After 4 hours of treatment, cells were washed in OptiMEM and 100 μl DMEM containing serum was added. Following oligonucleotide treatment, cells were allowed to recover for the period indicated before they were removed from the CO2 incubator and equilibrated to room temperature for 15 min. 100 μl of the highly sensitive Caspase 3/7-Glo™ Reagent (Promega) was added directly to the cells, and the plates were incubated for 20 min. Luminescence (luciferase activity) was recorded in a Luminoskan Ascent instrument (Thermo Labsystems). The luciferase activity is measured as Relative Light Units per seconds (RLU/s). The data was analysed using the Ascent software 2.4.2. Graphs of fold induction relative to mock were generated using MS Excel.
# Staurosporine, Camptothecine or Taxol induced cells served as positive controls (see FIGS. 3, 6A and Table 4 plus Example 21).
# [1] = system: Survivin full length, Survivin2B and SurvivinΔex3 mRNA; assay: Survivin splice variant mRNA expression by real-time PCR in 15PC3 cells; type: cell-based, human; details: 5 nM, normalised to GAPDH, relative to mock
# Method: Cell culturing and transfections: 15PC3 cells were seeded in 12-well plates and grown for two days at 37° C. (5% CO2) in DMEM supplemented with 10% FBS, Glutamax I and Gentamicin. When the cells were 60-70% confluent, they were transfected in duplicates with different concentrations of oligonucleotides (0.2-25 nM) using Lipofectamine 2000 (10 μg/ml). Transfections were carried out essentially as described by Dean et al. (1994, JBC 269:16416-16424). In short, cells were incubated for 10 min. with Lipofectamine in OptiMEM followed by addition of oligonucleotide to a total volume of 0.5 ml transfection mix per well. […]
# as §1, with “The 60 μl were dispersed in two wells (96 well plates) with 25 μl in each well. For human Bcl-2 the PCR primers were:” left out
# The primers and probe were obtained from Proligonucleotide (France). […] Relative quantities of Survivin mRNA were determined from the calculated threshold cycle using the iCycler IQ Real Time Detection System software.
substance,measurement,setting,value
5′-^MeCsTs^MeCsAsastscscsastsgsgs^MeCsAsGsc-3′ (l[5mC]*lT*l[5mC]*lA*dA*dT*dC*dC*dA*dT*dG*dG*l[5mC]*lA*lG*dC) [SEQ ID NO. 2],Bcl-2 mRNA expression,"Bcl-2 mRNA; 10 nM, 24 hours, 15PC3 cells, single agent or combined with control oligonucleotides",have effects on Survivin and Bcl-2 expression
same,Bcl-2 down-regulation,"Bcl-2 mRNA; summary statement, conditions not given",down-regulation of Bcl-2
same,lowest lethal dose,rats,1000 mg/kg
same,"Apoptosis At 5 nM, 24 hours","15PC3 cells; 5 nM, 24 hours (Table 7, FIG. 3)",3.5-fold
same,Max Apoptosis,"15PC3 cells; 25 nM, 24 hours (Table 7)",6.5-fold
same,"Maximum Induction Fold-induction of apoptosis, Caspase 3/7 assay","15PC3 cells; 25 nM, 48 hours, 15PC3 cells","6.9 x (25 nM, 48 hours)"
same,"Fold induction of apoptosis, Caspase 3/7 assay","15PC3 cells; 24 hours, 5 nM, 15PC3 cells, relative to mock",3.5 x
same,Expression of the 3 isoforms of Survivin mRNA,[1],able to down-regulate all expressed isoforms of human Survivin
